Measured values: patent US9918963B2, “Therapeutic agent for disease based on inhibitory effect of macrophage migration inhibitory factor” (TOYAMA CHEMICAL CO., LTD., priority 2013, dated 2018)

Assays:
MIF = biological target: T1, MIF (Homo sapiens, UniProt P14174); assay: Confirmation of the binding of Compound A and MIF (compound beads pull-down from THP-1 cell lysate, Western blotting); settings: elution with 0.5 mmol/L Compound A, anti-MIF Western blotting
T1 construct: (catalogue number not given); host or cells: E. coli BL21 Star (DE3)
T1 sequence (P14174 2-115 limits assumed): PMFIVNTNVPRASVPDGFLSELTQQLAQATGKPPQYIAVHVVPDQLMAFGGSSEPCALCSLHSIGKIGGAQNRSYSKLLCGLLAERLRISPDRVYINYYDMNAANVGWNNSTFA
Experimental: THP-1 cells were cultured for about 6 hours in PRMI 1640 medium containing 1% fetal bovine serum and 50 μmol/L 2-mercaptoethanol. Then, lipopolysaccharide (E. coli 0127:B8, Sigma Aldrich) was added to the culture plate at a final concentration of 1 μg/mL, and the cells were cultured for about 30 minutes. The cells were harvested and washed with phosphate buffered saline, and mixed with about 2-fold volume of cell lysis buffer (20 mmol/L Tris, 150 mmol/L sodium chloride, 1 mmol/L magnesium chloride, 0.1% NP-40, 1 mmol/L dithiothreitol, 0.1% Triton X-100, pH 7.4). The resultant mixture was placed on ice with occasional stirring for about 30 minutes, and was centrifuged (20000×g, 4° C., 8 minutes). The separated and gained supernatant was used as cell lysate. Protein concentration of the cell lysate was measured with BCA protein assay reagent (Thermo Fisher Scientific K.K.) in accordance with its manual.
Immobilization of 4-amino-N-[7-[(methylsulfonyl)amino]-4-oxo-6-phenoxy-4H-1-benzopyran-3-yl]butanamide hydrochloride on Dynabeads M-270 Carboxylic Acid (Life Technologies Corporation) was performed by a general method. […]

[1] = test system: chronic relapsing EAE model of mouse; type: in vivo
Experimental: Compound A was selected as a test substance, and salazosulfapyridine (hereinafter referred to as SASP) was selected as a comparative control agent. Compound A was administered at a dose of 30 mg/kg (Compound A group). SASP was administered at a dose of 300 mg/kg (SASP group). In control group and normal group (no induction treatment group), 0.5% methyl cellulose aqueous solution used as vehicle of the administration liquid was administered.
The chronic relapsing EAE was induced in SJL/J female mice by immunization with partial PLP peptide. Briefly, an emulsion was prepared by mixing equivalent volumes of phosphate buffer saline containing 1 mg/mL of the peptide corresponding to residues 139-151 of the PLP and Freund's […] adjuvant containing 4 mg/mL of killed M. Tuberculosis H37Ra. The emulsion was intradermically injected (50 μg of PLP per mouse) into four positions on the back for immunization, and additionally, on the day of the immunization and two days after, pertussis toxin was intraperitoneally injected in each amount of 150 ng per mouse, twice in total. The vehicle, the test substance or the reference article was orally administered continuously for 44 days once daily from the day of the immunization.
In the present experiment, paralysis was developed to reach a peak on the 14th to 16th day after the immunization, and the symptom remitted once, but relapsed to reach a peak on the 38th day.
The symptom was evaluated in accordance with a report of Weaver et al. (FASEB Journal, 2005, vol. 19, p. 1668). Briefly, paralysis of all of the four limbs and the tail was evaluated by scoring in 4 ranks of scores of 0 to 3 and in 3 ranks of scores of 0 to 2, respectively, and the sum of the scores was determined as EAE score (the maximum score 14).
Incidence rates (the number of mice having developed the disease/the number of used mice) and the average of EAE score of each group were measured at the period of initial onset (on the 15th day after the immunization) and at the period of relapse (on the 38th day after the immunization).

For CS(=O)(=O)Nc1cc2occ(NC=O)c(=O)c2cc1Oc1ccccc1 [Compound A, N-[7-[(methylsulfonyl)amino]-4-oxo-6-phenoxy-4H-1-benzopyran-3-yl]formamide], the “Binding of MIF to Compound A” value (MIF) was “specifically binds”, the “EAE score, period of initial onset” value ([1]; 15th day after immunization, average, maximum score 14, oral once daily (Compound A 30 mg/kg, SASP 300 mg/kg)) was 1.4 and the “Incidence rate, period of initial onset” value ([1]; 15th day after immunization, mice having developed the disease/mice used, oral once daily from immunization (Compound A 30 mg/kg, SASP 300 mg/kg)) was 1/8. For the same molecule, the “EAE score, period of relapse” value ([1]; 38th day after immunization, average, maximum score 14, oral once daily (Compound A 30 mg/kg, SASP 300 mg/kg)) was 0.3, the “Incidence rate, period of relapse” value ([1]; 38th day after immunization, mice having developed the disease/mice used, oral once daily (Compound A 30 mg/kg, SASP 300 mg/kg)) was 2/8 and the “Effect on incidence rate / EAE score, paralysis of chronic relapsing EAE” value ([1]; oral once daily for 44 days from immunization (Compound A 30 mg/kg, SASP 300 mg/kg)) was “suppressed the occurrence of paralysis”.
